Test system: K98450-129-R-PDC multicell spheroids, viability
Experiment: Anticancer human tumor K98450-129-R-PDC patient-derived colon adenocarcinoma cell line growth inhibition [PI3K]
Settings: for IC50: curve of first compound; for viability, T/C: stronger effect = lower value
In short: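 Tumor cells were combined with HUVEC and MSCs into spheroids, then dosed with PI3K-inhibitor combinations over half-log ranges capped near clinical Cmax or 10 microM.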
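Also: spheroids exposed to agents for seven days before read-out.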

**Q.** `C[C@@H](NC(=O)c1ncnc(N)c1Cl)c1ncc(C(=O)Nc2cc(C(F)(F)F)c(Cl)cn2)s1` + COc1c(OCCCN2CCOCC2)ccc2c3n(c(=NC(=O)c4cnc(N)nc4)nc12)CCN3 was tested. Which IC50 (second compound 0.00316 µM) did it give?
**A.** Its IC50 is over 10 µM.

**Q.** What about the IC50 (second compound 0.01 µM) of the same molecule?
**A.** Its IC50 is over 10 µM.

**Q.** And the IC50 (second compound 0.0316 µM)?
**A.** The IC50 was over 10 µM.

**Q.** And the IC50 (second compound 0.1 µM)?
**A.** Its IC50 is over 10 µM.

**Q.** And the IC50 (second compound 0.316 µM)?
**A.** The IC50 was over 10 µM.

**Q.** And the IC50 (second compound 1 µM)?
**A.** The IC50 was 4.39 µM.

**Q.** And the viability, T/C (second compound 0.00316 µM, first compound 0.0316 µM)?
**A.** The viability, T/C was 119%.

**Q.** And the viability, T/C (second compound 0.00316 µM, first compound 0.1 µM)?
**A.** The viability, T/C was 119%.

**Q.** What about the viability, T/C (second compound 0.00316 µM, first compound 0.316 µM) of the same molecule?
**A.** The viability, T/C was 108%.

**Q.** And the viability, T/C (second compound 0.00316 µM, first compound 1 µM)?
**A.** Its viability, T/C is 117%.

**Q.** What about the viability, T/C (second compound 0.00316 µM, first compound 3.16 µM) of the same molecule?
**A.** Its viability, T/C is 133%.

**Q.** And the viability, T/C (second compound 0.00316 µM, first compound 10 µM)?
**A.** Its viability, T/C is 95%.

**Q.** What about the viability, T/C (second compound 0.01 µM, first compound 0.0316 µM) of the same molecule?
**A.** Its viability, T/C is 108%.

**Q.** What about the viability, T/C (second compound 0.01 µM, first compound 0.1 µM) of the same molecule?
**A.** Its viability, T/C is 93.7%.

**Q.** And the viability, T/C (second compound 0.01 µM, first compound 0.316 µM)?
**A.** The viability, T/C was 115%.

**Q.** And the viability, T/C (second compound 0.01 µM, first compound 1 µM)?
**A.** Its viability, T/C is 108%.

**Q.** What about the viability, T/C (second compound 0.01 µM, first compound 3.16 µM) of the same molecule?
**A.** The viability, T/C was 105%.

**Q.** What about the viability, T/C (second compound 0.01 µM, first compound 10 µM) of the same molecule?
**A.** Its viability, T/C is 95.9%.

**Q.** And the viability, T/C (second compound 0.0316 µM, first compound 0.0316 µM)?
**A.** Its viability, T/C is 83.5%.

**Q.** And the viability, T/C (second compound 0.0316 µM, first compound 0.1 µM)?
**A.** The viability, T/C was 96%.

**Q.** What about the viability, T/C (second compound 0.0316 µM, first compound 0.316 µM) of the same molecule?
**A.** Its viability, T/C is 97.4%.

**Q.** What about the viability, T/C (second compound 0.0316 µM, first compound 1 µM) of the same molecule?
**A.** Its viability, T/C is 93%.

**Q.** What about the viability, T/C (second compound 0.0316 µM, first compound 3.16 µM) of the same molecule?
**A.** Its viability, T/C is 109%.

**Q.** And the viability, T/C (second compound 0.0316 µM, first compound 10 µM)?
**A.** The viability, T/C was 78.7%.

**Q.** What about the viability, T/C (second compound 0.1 µM, first compound 0.0316 µM) of the same molecule?
**A.** The viability, T/C was 76%.

**Q.** And the viability, T/C (second compound 0.1 µM, first compound 0.1 µM)?
**A.** Its viability, T/C is 87%.

**Q.** What about the viability, T/C (second compound 0.1 µM, first compound 0.316 µM) of the same molecule?
**A.** The viability, T/C was 98.4%.

**Q.** And the viability, T/C (second compound 0.1 µM, first compound 1 µM)?
**A.** The viability, T/C was 90.3%.

**Q.** And the viability, T/C (second compound 0.1 µM, first compound 3.16 µM)?
**A.** The viability, T/C was 101%.

**Q.** And the viability, T/C (second compound 0.1 µM, first compound 10 µM)?
**A.** Its viability, T/C is 70.9%.

**Q.** And the viability, T/C (second compound 0.316 µM, first compound 0.0316 µM)?
**A.** The viability, T/C was 54.8%.

**Q.** What about the viability, T/C (second compound 0.316 µM, first compound 0.1 µM) of the same molecule?
**A.** The viability, T/C was 71.6%.

**Q.** What about the viability, T/C (second compound 0.316 µM, first compound 0.316 µM) of the same molecule?
**A.** Its viability, T/C is 65.2%.

**Q.** What about the viability, T/C (second compound 0.316 µM, first compound 1 µM) of the same molecule?
**A.** The viability, T/C was 69.2%.

**Q.** What about the viability, T/C (second compound 0.316 µM, first compound 3.16 µM) of the same molecule?
**A.** Its viability, T/C is 68.2%.

**Q.** What about the viability, T/C (second compound 0.316 µM, first compound 10 µM) of the same molecule?
**A.** Its viability, T/C is 51.1%.

**Q.** What about the viability, T/C (second compound 1 µM, first compound 0.0316 µM) of the same molecule?
**A.** The viability, T/C was 58.3%.

**Q.** What about the viability, T/C (second compound 1 µM, first compound 0.1 µM) of the same molecule?
**A.** Its viability, T/C is 55%.

**Q.** And the viability, T/C (second compound 1 µM, first compound 0.316 µM)?
**A.** The viability, T/C was 51.1%.

**Q.** What about the viability, T/C (second compound 1 µM, first compound 1 µM) of the same molecule?
**A.** Its viability, T/C is 62.1%.

**Q.** And the viability, T/C (second compound 1 µM, first compound 3.16 µM)?
**A.** The viability, T/C was 59.6%.

**Q.** What about the viability, T/C (second compound 1 µM, first compound 10 µM) of the same molecule?
**A.** Its viability, T/C is 37.1%.
